The values below come from patent US20210382054A1, “METHODS FOR SCREENING UBIQUITIN LIGASE AGONISTS” (University of Washington, priority 2018, published 2021).

The data set concerns the target T1, KEAP1-ssDNA12 and KRAS^G12D-ssDNA18 (Homo sapiens, UniProt P01116+Q14145, G12D).
T1 construct: full length human KRAS4B (UniProtKB-P01116-2) with a site mutation G12D; His-tag (N, cleaved yes); His-tag (N); made in house; host or cells: E. coli BL21 (DE3)
In words: APTLAB (adjustable platform for tracking low affinity binding) detected by Octet BLI. The note with it: ssDNA bridge oligonucleotide alone, no compound (FIG. 8B). From the text: While TR-FRET can be used as an informative second screen for hit validation, its principle is similar to AlphaScreen and relies on beads-based and proximity-induced signals. The hit compounds were further validated with additional methods that are distinct from AlphaScreen and TR-FRET methods. […] In other words, even though these compounds might be able to promote KRAS-KEAP1 interaction, the resulting ternary complex might be too unstable to be detected by the conventional methods. To overcome this problem, a new assay was designed (designated herein as APTLAB, adjustable platform for tracking low affinity binding) (FIG. 5), in which weak interactions between complementary DNA strands with variable length was used to enhance the compound-induced low affinity binding between KRAS and KEAP1 and render it detectable by conventional methods.
To couple adjustable DNA oligonucleotide interactions with low affinity protein-protein interaction, a protein fold, HUH, which is able to react with a specific single-stranded DNA (ssDNA) oligonucleotide and form a covalently linked protein-DNA conjugate (Lovendahl, K. N., Hayward, A. N. & Gordon, W. R. Sequence-Directed Covalent Protein-DNA Linkages in a Single Step Using HUH-Tags. J Am Chem Soc 139, 7030-7035, doi:10.1021/jacs.7b02572 (2017)), was utilized. HUH protein was fused to the C-terminus of KEAP1 and KRAS^G12D individually so that the two chimeric proteins can each form a covalent link with an ssDNA containing the HUH-reactive sequence (FIGS. 5 and 6). The purified HUH fusion proteins were adjusted to 100 μM in a buffer containing 20 mM HEPES (pH 7.5), 50 mM NaCl, 0.5 mM TCEP, 1 mM MgCl2 and 1 mM MnCl2. The ssDNA oligonulceotides were added to a final concentration of 120 μM. […]
ssDNA bridge oligonucleotides were synthesized with different lengths with 33, 28 and 23 nucleotides (nt) (FIG. 8A) and tested their ability to promote complex formation between the two ssDNA-protein conjugates as monitored by BLI. […]
(In general: In BLI a coated tip is dipped into the sample, and binding shifts an interference pattern.)

Regarding “ssDNA-bridge23nt: ssDNA bridge oligonucleotide, 23 nucleotides, 5′-GTTGTTGTTTTGTATGGTGTGTG-3′ (chemistry not fully specified)”, the “complex formation between KEAP1-ssDNA12 and KRAS^G12D-ssDNA18, BLI binding signal” value is given as “too weak to detect”.
The same measure for “ssDNA-bridge28nt: ssDNA bridge oligonucleotide, 28 nucleotides, 5′-GTTGTTGTTGTTTTGTATGGTGTGTGGT-3′; inflection point bridge (chemistry not fully specified)”: “significantly lower”; for “ssDNA-bridge33nt: ssDNA bridge oligonucleotide, 33 nucleotides, 5′-GTTGTTGTTGTTGTTTTGTATGGTGTGTGGTGG-3′ (chemistry not fully specified)”: “high BLI signal”.
